From patent publication US4622244A, “Process for preparation of microcapsules” (The Washington University, priority 1984, dated 1986)
In brackets after ≈: the same amount, converted by molar mass. Like-named read-outs stand apart in the source and are kept apart here.

Tests used:
[1] = Mouse tail-flick test, morphine challenge; type: in vivo
Procedure: Microcapsules (177-295 microns in size) so prepared were evaluated by the mouse tail-flick test procedure. Mice (groups of 6) were the test animals. The morphine challenge dose was 10 mg./kg. mouse; test animal response was measured 20 min. after morphine injection. As will be seen, the microcapsules caused more than 50% antagonism 28 days after injection both in the tests in which peanut oil was used as the suspending medium and in the tests where peanut oil plus aluminum monostearate was used as the suspending medium.
*All injections (1 cc/100 g mouse) given through 18 gauge needle; Morphin
challenge dose: 10 mg/kg mouse; Capsule size: 177-295μ; Active content
of capsules initially: 67 wt. %.
Similar studies were run with microcapsules (105 to 177 microns in size) of naltrexone free base (NFB) prepared in the same manner as the naltrexone pamoate microcapsules.
challenge dose: 10 mg/kg mouse; Capsule size: 105-177μ; Active content

[2] = Solubility of cyclazocine in solvents (equilibration, solids content after solvent evaporation); type: physicochemical
Procedure: For example, taking cyclazocine as the solid, injectable drug material, Table I summarizes the solubility data obtained for this drug in a number of solvents.
After equilibration (20-30 min), one ml. of solution was transferred to a tared weighing dish and the solids content determined by solvent evaporation.
In particular, the aromatic solvents have little tendency to dissolve it at room temperature.

[3] = In vitro release/dissolution by end-over-end tumbling in phosphate buffer at 37° C.; type: physicochemical

## O=C1CC[C@@]2(O)[C@H]3Cc4ccc(O)c5c4[C@@]2(CCN3CC2CC2)[C@H]1O5 [NFB]
[1]; 7 days, 40 mg unencapsulated NFB/kg mouse, peanut oil
  % Antagonism: 80.0%
[1]; 7 days, 40 mg unencapsulated NFB/kg mouse, peanut oil + 2 wt. % AIMS
  % Antagonism: 54.1%
[1]; 10 days, 40 mg unencapsulated NFB/kg mouse, peanut oil
  % Antagonism: 39.7%
[1]; 10 days, 40 mg unencapsulated NFB/kg mouse, peanut oil + 2 wt. % AIMS
  % Antagonism: 69.5%
[1]; 14 days, 40 mg unencapsulated NFB/kg mouse, peanut oil
  % Antagonism: 21.8%
[1]; 14 days, 40 mg unencapsulated NFB/kg mouse, peanut oil + 2 wt. % AIMS
  % Antagonism: 48.0%
[1]; 21 days, 40 mg unencapsulated NFB/kg mouse, peanut oil
  % Antagonism: 8.1%
[1]; 21 days, 40 mg unencapsulated NFB/kg mouse, peanut oil + 2 wt. % AIMS
  % Antagonism: 15.2%

## O=C1CC[C@@]2(O)[C@H]3Cc4ccc(O)c5c4[C@@]2(CCN3CC2CC2)[C@H]1O5 [NP]
[1]; 7 days, 40 mg unencapsulated NP/kg mouse, peanut oil
  % Antagonism: 66.1%
[1]; 7 days, 40 mg unencapsulated NP/kg mouse, peanut oil + 2 wt. % AIMS
  % Antagonism: 88.3%
[1]; 14 days, 40 mg unencapsulated NP/kg mouse, peanut oil
  % Antagonism: 59.1%
[1]; 14 days, 40 mg unencapsulated NP/kg mouse, peanut oil + 2 wt. % AIMS
  % Antagonism: 52.9%
[1]; 21 days, 40 mg unencapsulated NP/kg mouse, peanut oil
  % Antagonism: 12.9%
[1]; 21 days, 40 mg unencapsulated NP/kg mouse, peanut oil + 2 wt. % AIMS
  % Antagonism: 11.2%
[1]; 28 days, 40 mg unencapsulated NP/kg mouse, peanut oil
  % Antagonism: 13.9%
[1]; 28 days, 40 mg unencapsulated NP/kg mouse, peanut oil + 2 wt. % AIMS
  % Antagonism: 18.4%

## C[C@H]1[C@H]2Cc3ccc(O)cc3[C@]1(C)CCN2CC1CC1 [cyclazocine, 3-(cyclopropylmethyl)-1,2,3,4,-5,6-hexahydro-6,11-dimethyl-2,6-methano-3-benzazocin-8-ol]
[2]; 25 acetone/75 ethanol (v/v), organic solvent or mixture, 25 acetone/75 ethanol (V/V), 25° C., read-out: Solubility
  solubility: 4540 µg/mL (≈ 16.7 mM)
[2]; 50 acetone/50 ethanol (v/v), organic solvent or mixture, 50 acetone/50 ethanol (V/V), 25° C., read-out: Solubility
  solubility: 4700 µg/mL (≈ 17.3 mM)
[2]; 75 acetone/25 ethanol (v/v), organic solvent or mixture, 75 acetone/25 ethanol (V/V), 25° C., read-out: Solubility
  solubility: 4740 µg/mL (≈ 17.5 mM)
[2]; acetone, organic solvent or mixture, acetone, 25° C., read-out: Solubility
  solubility: 5100 µg/mL (≈ 18.8 mM)
[2]; benzene, organic solvent or mixture, benzene, 25° C., read-out: Solubility
  solubility: 1400 µg/mL (≈ 5.16 mM)
[2]; benzene, organic solvent or mixture, benzene, 50° C., read-out: Solubility
  solubility: 2400 µg/mL (≈ 8.84 mM)
[2]; chloroform, organic solvent or mixture, chloroform, 25° C., read-out: Solubility
  solubility: 7600 µg/mL (≈ 28 mM)
[2]; cyclohexane, 80° C.
  solubility: Insoluble
[2]; decahydronaphthalene, organic solvent or mixture, decahydronaphthalene, 25° C., read-out: Solubility
  solubility: 1700 µg/mL (≈ 6.26 mM)
[2]; decahydronaphthalene, organic solvent or mixture, decahydronaphthalene, 130° C., read-out: Solubility
  solubility: 3400 µg/mL (≈ 12.5 mM)
[2]; ethanol, organic solvent or mixture, ethanol, 25° C., read-out: Solubility
  solubility: 6640 µg/mL (≈ 24.5 mM)
[2]; ethanol, organic solvent or mixture, ethanol, 73° C., read-out: Solubility
  solubility: 52000 µg/mL (≈ 192 mM)
[2]; ethyl acetate, organic solvent or mixture, ethyl acetate, 4° C., read-out: Solubility
  solubility: 2600 µg/mL (≈ 9.58 mM)
[2]; ethyl acetate, organic solvent or mixture, ethyl acetate, 25° C., read-out: Solubility
  solubility: 6300 µg/mL (≈ 23.2 mM)
[2]; ethyl acetate, organic solvent or mixture, ethyl acetate, 77° C., read-out: Solubility
  solubility: 45000 µg/mL (≈ 166 mM)
[2]; isopropanol, organic solvent or mixture, isopropanol, 25° C., read-out: Solubility
  solubility: 26800 µg/mL (≈ 98.7 mM)
[2]; isopropanol, organic solvent or mixture, isopropanol, 80° C., read-out: Solubility
  solubility: 26800 µg/mL (≈ 98.7 mM)
[2]; methanol, organic solvent or mixture, methanol, 25° C., read-out: Solubility
  solubility: 18400 µg/mL (≈ 67.8 mM)
[2]; methanol, organic solvent or mixture, methanol, 63° C., read-out: Solubility
  solubility: 33200 µg/mL (≈ 122 mM)
[2]; methyl ethyl ketone, organic solvent or mixture, methyl ethyl ketone, 4° C., read-out: Solubility
  solubility: 9100 µg/mL (≈ 33.5 mM)
[2]; methyl ethyl ketone, organic solvent or mixture, methyl ethyl ketone, 25° C., read-out: Solubility
  solubility: 16000 µg/mL (≈ 59 mM)
[2]; methyl ethyl ketone, organic solvent or mixture, methyl ethyl ketone, 79° C., read-out: Solubility
  solubility: 59800 µg/mL (≈ 220 mM)
[2]; n-butanol, organic solvent or mixture, n-butanol, 4° C., read-out: Solubility
  solubility: 4500 µg/mL (≈ 16.6 mM)
[2]; n-butanol, organic solvent or mixture, n-butanol, 25° C., read-out: Solubility
  solubility: 15000 µg/mL (≈ 55.3 mM)
[2]; n-butanol, organic solvent or mixture, n-butanol, 117° C., read-out: Solubility
  solubility: 215000 µg/mL (≈ 792 mM)
[2]; range of solvents, room temperature
  Solubility (in words): relatively low solubility
[2]; toluene, organic solvent or mixture, toluene, 25° C., read-out: Solubility
  solubility: 1000 µg/mL (≈ 3.68 mM)
[2]; toluene, organic solvent or mixture, toluene, 35° C., read-out: Solubility
  solubility: 1500 µg/mL (≈ 5.53 mM)
[2]; toluene, organic solvent or mixture, toluene, 50° C., read-out: Solubility
  solubility: 4000 µg/mL (≈ 14.7 mM)
[2]; toluene, organic solvent or mixture, toluene, 100° C., read-out: Solubility
  solubility: 15000 µg/mL (≈ 55.3 mM)
[2]; xylene, organic solvent or mixture, xylene, 25° C., read-out: Solubility
  solubility: 1200 µg/mL (≈ 4.42 mM)
[2]; xylene, organic solvent or mixture, xylene, 50° C., read-out: Solubility
  solubility: 1800 µg/mL (≈ 6.63 mM)
[2]; xylene, organic solvent or mixture, xylene, 90° C., read-out: Solubility
  solubility: 17500 µg/mL (≈ 64.5 mM)
[3]; buffer pH 7.4
  Complete dissolution time of unencapsulated drug: ≤ 15 min
[3]; same buffer, pH 7.0
  Complete dissolution time of unencapsulated drug: ≤ 15 min
